# Values quoted from earlier work in patent US12156879B2, “Combining BACE1 inhibitors with mGluR agonists for Alzheimer's disease therapy” (University of Connecticut, priority 2019, dated 2024).
# Key:
# hippocampal LTP = settings: mice treated with the BACE1 inhibitor; cited from earlier work
# [1] = test system: layer V pyramidal neurons; settings: mice treated with the BACE1 inhibitor; cited from earlier work
SMILES,hippocampal LTP (hippocampal LTP),spine formation in layer V pyramidal neurons [1]
C[C@@]1(c2cc(-c3cncnc3)c(F)cc2F)CCSC(N)=N1 [LY2811376],impaired,reduced
CC#Cc1cncc(-c2cc(Cl)c(C3(C)CC(=O)N(C)C(=N)N3)s2)c1 (stereo not shown) [SCH1682496],impaired,reduced
